Results as given in patent US20230227484A1, “PYRIMIDINE COMPOUND AS AXL INHIBITOR” (NANJING CHIA TAI TIANQING PHARMACEUTICAL CO., LTD., priority 2020, published 2023).

Molecular target: T1, AXL kinase (Homo sapiens, UniProt P30530)
T1 construct: purchased Carna 08-107
T1 sequence (P30530 473-894 limits assumed): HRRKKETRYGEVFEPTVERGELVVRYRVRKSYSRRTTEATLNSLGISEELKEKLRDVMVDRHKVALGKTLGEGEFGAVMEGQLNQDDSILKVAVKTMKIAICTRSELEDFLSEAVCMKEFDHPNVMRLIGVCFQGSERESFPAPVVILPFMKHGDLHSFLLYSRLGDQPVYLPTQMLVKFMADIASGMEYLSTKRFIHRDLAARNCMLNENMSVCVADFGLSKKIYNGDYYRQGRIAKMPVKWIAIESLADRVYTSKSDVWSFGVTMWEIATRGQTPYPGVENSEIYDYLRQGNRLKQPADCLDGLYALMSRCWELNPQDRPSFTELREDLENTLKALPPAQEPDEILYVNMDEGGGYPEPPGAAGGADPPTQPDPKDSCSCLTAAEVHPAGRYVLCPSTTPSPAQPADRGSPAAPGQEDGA
Assay: Inhibitory activity of compound against AXL kinase (HTRF KinEASE)
Format: biochemical
Conditions: AXL enzyme (Carna, 08-107), ATP 15 μM; "<" means below detection limit of the test
Method: a) AXL enzyme (Carna, 08-107) configuration and addition: a 1×enzyme buffer (200 μL of Enzymatic buffer kinase 5×, 10 μL of 500 mM MgCl2, 10 μL of 100 mM DTT and 6.26 μL of 2500 nM SEB are added with […] of H2O, and prepared into 1 ml of 1× enzyme buffer) is used. AXL enzyme is diluted from 33.33 ng/uL to 0.027 ng/μL (1.67×, final conc.=0.016 ng/uL), a BioTek (MultiFlo FX) automatic liquid dispenser is used, and 6 μL of enzyme solution having a 1.67-fold final concentration is added respectively to compound wells and positive control wells; and 6 μL of 1×Enzymatic buffer is added to negative control wells.
b) Compound preparation and addition: the compounds and positive drugs prepared in the examples are diluted from 10 mM to 100 μM by DMSO, and titrated with a compound titrator (Tecan, D300e). The titrated solution is automatically sprayed by the titrator to each well to reach a required concentration, wherein the first concentration is 1 μM, and after ½ log dilution, a total of 8 concentrations are obtained. The resulting mixture is centrifuged at 2500 rpm for 30 s and incubated at room temperature for 15 min.
c) Preparation and addition of ATP and substrate: ATP (Sigma, A7699) is diluted with 1× enzyme buffer from 10 mM to 75 μM (5×), and the final concentration is 15 μM; the substrate TK Substrate 3-biotin (Cisbio, 61TK0BLC) is diluted with 1× enzyme buffer from 500 μM to 5 μM (5×), andthe final concentration is […]; ATP and the substrate are mixed in equal volume to obtain a mixed solution; the mixed solution is added to each well at 4 μL by using a BioTek automatic dispenser; centrifuged at 2500 rpm for 30 s, and reacted at 25° C. for 45 min.
d) Pirparation and addition of detection reagent: Streptavidin-XL665 (Cisbio, 610SAXLG) is diluted with HTRF KinEASE detection buffer (cisbio) from 16.67 μM to 250 nM (4×), and the final concentration is 62.5 nM; TK Antibody-Cryptate (Cisbio) is diluted with HTRF KinEASE detection buffer (cisbio) from 100× to 5×, and the final concentration is 1×; XL665 and Antibody are mixed in equal volume; the mixed solution is added to each well at 10 μL by using the BioTek automatic dispenser, centrifuged at 2500 rpm for 30 s, and reacted at 25° C. for 1 h. After the reaction is completed, the resulting product is detected by a multi-function plate reader HTR1p
GraphPad Prism 5 software log (inhibitor) vs. response-Variable slope is used to fit a dose-response curve to obtain the IC50 value of the compound to the inhibition of AXL kinase.
The calculation formula of the inhibition rate is as follows: […]

## COc1ccc(Nc2nc(Nc3ccc4c(c3)CC[C@@H](N3CCCC3)CC4)ncc2Cl)c(P(C)(C)=O)c1 [Example 55, (S)-(2-((5-chloro-2-((7-(pyrrolidin-1-yl)-6,7,8,9-tetrahydro-5H-benzo[7]annulen-2-yl)amino)pyrimidin-4-yl)amino)-5-methoxyphenyl)dimethyl phosphine oxide]
  IC50: 3.14 nM

## [2H]C([2H])([2H])P(=O)(c1ccccc1Nc1nc(Nc2ccc3c(c2)CC[C@@H](N2CCCC2)CC3)ncc1Cl)C([2H])([2H])[2H] [Example 56, (S)-(2-((5-chloro-2-((7-(pyrrolidin-1-yl)-6,7,8,9-tetrahydro-5H-benzo[7]annulen-2-yl)amino)pyrimidin-4-yl)amino)phenyl)bis(methyl-d3) phosphine oxide]
  IC50: 2.04 nM

## [2H]C([2H])([2H])P(=O)(c1cc(F)ccc1Nc1nc(Nc2ccc3c(c2)CC[C@@H](N2CCCC2)CC3)ncc1Cl)C([2H])([2H])[2H] [Example 57, (S)-(2-((5-chloro-2-((7-(pyrrolidin-1-yl)-6,7,8,9-tetrahydro-5H-benzo[7]annulen-2-yl)amino)pyrimidin-4-yl)amino)-5-fluorophenyl)bis(methyl-d3) phosphine oxide]
  IC50: 6.27 nM

## CNC(=O)c1cc(P(C)(C)=O)ccc1Nc1nc(Nc2ccc3c(c2)CC[C@@H](N2CCCC2)CC3)ncc1Cl [Example 79, (S)-2-((5-chloro-2-((7-(pyrrolidin-1-yl)-6,7,8,9-tetrahydro-5H-benzo[7]annulen-2-yl)amino)pyrimidin-4-yl)amino)-5-(dimethylphosphoryl)-N-methylbenzamide]
  IC50: 1.05 nM

## CP(C)(=O)c1cc(Br)ccc1Nc1nc(Nc2ccc3c(c2)CC[C@@H](N2CCCC2)CC3)ncc1Cl [Example 110, (S)-(5-bromo 2-((5-chloro-2-((7-(pyrrolidin-1-yl)-6,7,8,9-tetrahydro-5H-benzo[7]annulen-2-yl)amino)pyrimidin-4-yl)amino)phenyl)dimethyl phosphine oxide]
  IC50: 1.7 nM

## [2H]c1ccc(Nc2nc(Nc3ccc4c(c3)CC[C@@H](N3CCCC3)CC4)ncc2Cl)c(P(C)(C)=O)c1 [Example 111, (S)-(2-((5-chloro-2-((7-(pyrrolidin-1-yl)-6,7,8,9-tetrahydro-5H-benzo[7]annulen-2-yl)amino)pyrimidin-4-yl)amino)phenyl-5-d)dimethyl phosphine oxide]
  IC50: 1.81 nM

## CP(C)(=O)c1cc(C2CC2)ccc1Nc1nc(Nc2ccc3c(c2)CC[C@@H](N2CCCC2)CC3)ncc1Cl [Example 112, (S)-(2-((5-chloro-2-((7-(pyrrolidin-1-yl)-6,7,8,9-tetrahydro-5H-benzo[7]annulen-2-yl)amino)pyrimidin-4-yl)amino)-5-cyclopropylphenyl)dimethyl phosphine oxide]
  IC50: 2.41 nM

## Cc1cccc(Nc2nc(Nc3ccc4c(c3)CC[C@@H](N3CCCC3)CC4)ncc2Cl)c1P(C)(C)=O [Example 113, (S)-(2-((5-chloro-2-((7-(pyrrolidin-1-yl)-6,7,8,9-tetrahydro-5H-benzo[7]annulen-2-yl)amino)pyrimidin-4-yl)amino)-6-methylphenyl) dimethyl phosphine oxide]
  IC50: 1.28 nM

## CC(C)Oc1ccc(Nc2nc(Nc3ccc4c(c3)CC[C@@H](N3CCCC3)CC4)ncc2Cl)c(P(C)(C)=O)c1 [Example 114]
  IC50: 2.03 nM

## Cc1cc(Cl)cc(Nc2nc(Nc3ccc4c(c3)CC[C@@H](N3CCCC3)CC4)ncc2Cl)c1P(C)(C)=O [Example 117, (S)-(4-chloro-2-((5-chloro-2-((7-(pyrrolidin-1-yl)-6,7,8,9-tetrahydro-5H-benzoannulen-2-yl)amino)pyrimidin-4-yl)amino)-6-methylphenyl)dimethyl phosphine oxide]
  IC50: 1.78 nM

## CP(C)(=O)c1cc(N2CC3(COC3)C2)ccc1Nc1nc(Nc2ccc3c(c2)CC[C@@H](N2CCCC2)CC3)ncc1Cl [Example 119, (S)-(2-((5-chloro-2-((7-(pyrrolidin-1-yl)-6,7,8,9-tetrahydro-5H-benzo[7]annulen-2-yl)amino)pyrimidin-4-yl)amino)-5-(2-oxa-6-azaspiro[3.3]heptan-6-yl)phenyl)dimethyl phosphine oxide]
  IC50: 9.24 nM

## CP(C)(=O)c1cc(OC2CC2)ccc1Nc1nc(Nc2ccc3c(c2)CC[C@@H](N2CCCC2)CC3)ncc1Cl [Example 128, (S)-(2-((5-chloro-2-((7-(pyrrolidin-1-yl)-6,7,8,9-tetrahydro-5H-benzo[7]annulen-2-yl)amino)pyrimidin-4-yl)amino)-5-cyclopropoxyphenyl)dimethyl phosphine oxide]
  IC50: 1.82 nM

## Cc1cc(Nc2nc(Nc3ccc4c(c3)CC[C@@H](N3CCCC3)CC4)ncc2Cl)c(P(C)(C)=O)cc1F [Example 129, (S)-(2-((5-chloro-2-((7-(pyrrolidin-1-yl)-6,7,8,9-tetrahydro-5H-benzo[7]annulen-2-yl)amino)pyrimidin-4-yl)amino)-5-fluoro-4-methylphenyl)dimethyl phosphine oxide]
  IC50: 9.68 nM

## Cc1ccc(P(C)(C)=O)c(Nc2nc(Nc3ccc4c(c3)CC[C@@H](N3CCCC3)CC4)ncc2Cl)c1 [Example 130, (S)-(2-((5-chloro-2-((7-(pyrrolidin-1-yl)-6,7,8,9-tetrahydro-5H-benzo[7]annulen-2-yl)amino)pyrimidin-4-yl)amino)-4-methylphenyl)dimethyl phosphine oxide]
  IC50: 12.3 nM

## COc1cc(Nc2nc(Nc3ccc4c(c3)CC[C@@H](N3CCCC3)CC4)ncc2Cl)c(P(C)(C)=O)cc1F [Example 131, (S)-(2-((5-chloro-2-((7-(pyrrolidin-1-yl)-6,7,8,9-tetrahydro-5H-benzo[7]annulen-2-yl)amino)pyrimidin-4-yl)amino)-5-fluoro-4-methoxylphenyl)dimethyl phosphine oxide]
  IC50: 207 nM

## CP(C)(=O)c1c(Nc2nc(Nc3ccc4c(c3)CC[C@@H](N3CCCC3)CC4)ncc2Cl)ccc(F)c1Cl [Example 132, (S)-(2-chloro-6-((5-chloro-2-((7-(pyrrolidin-1-yl)-6,7,8,9-tetrahydro-5H-benzo [7]annulen-2-yl)amino)pyrimidin-4-yl)amino)-3-fluorophenyl)dimethyl phosphine oxide]
  IC50: 2.36 nM

## COc1cc(P(C)(C)=O)c(Nc2nc(Nc3ccc4c(c3)CC[C@@H](N3CCCC3)CC4)ncc2Cl)cc1C#N [Example 136, (S)-(2-((5-chloro-2-((7-(pyrrolidin-1-yl)-6,7,8,9-tetrahydro-5H-benzo[7]annulen-2-yl)amino)pyrimidin-4-yl)amino)-4-cyano-5-methoxyphenyl)dimethyl phosphine oxide]
  IC50: 13.1 nM

## COC(C)(C)c1ccc(Nc2nc(Nc3ccc4c(c3)CC[C@@H](N3CCCC3)CC4)ncc2Cl)c(P(C)(C)=O)c1 [Example 139, (S)-(2-((5-chloro-2-((7-(pyrrolidin-1-yl)-6,7,8,9-tetrahydro-5H-benzo[7]annulen-2-yl)amino)pyrimidin-4-yl)amino)-5-(2-methoxypropan-2-yl)phenyl)dimethyl phosphine oxide]
  IC50: 2.53 nM

## CP(C)(=O)c1cc(C2(C#N)CC2)ccc1Nc1nc(Nc2ccc3c(c2)CC[C@@H](N2CCCC2)CC3)ncc1Cl [Example 140, (S)-1-(4-((5-chloro-2-((7-(pyrrolidin-1-yl)-6,7,8,9-tetrahydro-5H-benzo[7]annulen-2-yl)amino)pyrimidin-4-yl)amino)-3-(dimethylphosphoryl)phenyl)cyclopropane-1-carbonitrile]
  IC50: 2.91 nM
